Test results published in patent publication US8263567B2, “Treatment of hyperproliferative conditions of body surfaces” (Valderm APS, priority 2001, dated 2012).

Assays:
[1] = cited from earlier work
RNA Synthesis = details: grade and speed (rapid/slow); cited from earlier work
DNA Synthesis = details: grade and speed (rapid/slow); cited from earlier work
[2] = compared to other anthracyclines; cited from earlier work
psoriasis vulgaris = experiment: Clinical trial, topical therapy of psoriasis vulgaris (Examples 11-16); assay type: in vivo, human
Description: A patient having dermal manifestations of psoriasis vulgaris was selected for therapy using the invention. Valrubicin was prepared as a solution (ref ex, 5) at a concentration of 2% (weight/weight) and was applied to the affected skin once daily. The patient was monitored for improvement in their manifestations of psoriasis. […] A patient having dermal manifestations of psoriasis vulgaris was selected for therapy using the invention. Valrubicin was prepared as a solution (ref ex. 8) at a concentration of 0.5% (weight/weight) and was applied to the affected skin once daily. The patient was monitored for improvement in their manifestations of psoriasis. […] A patient having dermal manifestations of psoriasis vulgaris was selected for therapy using the invention. Valrubicin was prepared as a gel (ref ex. 6) at a concentration of 1% (weight/weight) and was applied to the affected skin once daily. The patient was monitored for improvement in their manifestations of psoriasis. […] A patient having dermal manifestations of psoriasis vulgaris was selected for therapy using the invention. Valrubicin was prepared as a solution (ref. ex 5) at a concentration of 2.0% (weight/weight) and was applied to the affected skin twice daily. The patient was monitored for improvement in their manifestations of psoriasis. […] A patient having dermal manifestations of psoriasis vulgaris was selected for therapy using the invention. Valrubicin was prepared as a solution (ref. ex 5) at a concentration of 2.0 (weight/weight) and was applied to the affected skin twice a week. The patient was monitored for improvement in their manifestations of psoriasis. […] A patient having dermal manifestations of psoriasis vulgaris was selected for therapy using the invention. Valrubicin was prepared as a solution (ref. ex 5) at a concentration of 2.0% (weight/weight) and was applied to the affected skin once a week. The patient was monitored for improvement in their manifestations of psoriasis.

[3] = 40 mg/ml intravesical instillation of two hours, 6 times once a week; cited from earlier work
normal dermal epithelium = details: histopathological animal experiments; cited from earlier work
[4] = in vivo; cited from earlier work
[5] = concentration similar to that used in treatment of bladder cancer; cited from earlier work
[6] = paravenous injection; cited from earlier work

| Structure (SMILES) | In vivo elimination [1] | In vivo metabolism [1] | RNA Synthesis inhibition (RNA Synthesis) | DNA Synthesis inhibition (DNA Synthesis) | Lipophilicity [2] | Skin lesions of psoriasis (psoriasis vulgaris; gel (ex. 6) 1% w/w, once daily) | Skin lesions of psoriasis (psoriasis vulgaris; solution (ex. 5) 2.0% w/w, once a week) | Skin lesions of psoriasis (psoriasis vulgaris; solution (ex. 5) 2% w/w, once daily) | Skin lesions of psoriasis (psoriasis vulgaris; solution (ex. 5) 2.0% w/w, twice daily) | Skin lesions of psoriasis (psoriasis vulgaris; solution (ex. 5) 2.0 (weight/weight), twice a week) | Skin lesions of psoriasis (psoriasis vulgaris; solution (ex. 8) 0.5% w/w, once daily) | Depth into the epithelium of the bladder at which an effective concentration is found [3] | Systemic uptake [3] | Effect on normal dermal epithelium (normal dermal epithelium) | Cardiotoxicity and haematological toxicity versus other anthracyclines [4] | Irritation of skin and eyes [5] | Local tissue toxicity [6] |
| --- | --- | --- | --- | --- | --- | --- | --- | --- | --- | --- | --- | --- | --- | --- | --- | --- | --- |
| COc1cccc2c1C(=O)c1c(O)c3c(c(O)c1C2=O)C[C@@](O)(C(=O)CO)C[C@@H]3O[C@H]1C[C@H](N)[C@H](O)[C@H](C)O1 [Doxorubicin] | Slow | Minimal | + (slow) | +++ (slow) | – | – | – | – | – | – | – | – | – | – | – | – | – |
| CCCCC(=O)OCC(=O)[C@]1(O)Cc2c(O)c3c(c(O)c2[C@@H](O[C@H]2C[C@H](NC(=O)C(F)(F)F)[C@H](O)[C@H](C)O2)C1)C(=O)c1c(OC)cccc1C3=O [Valrubicin, N-trifluoroacetyladriamycin-14-valerate] | rapid | Extensive | +++ (rapid) | +++ (rapid) | very lipophilic | skin lesions had subsided | skin lesions had subsided | skin lesions had subsided | skin lesions had subsided | skin lesions had subsided | skin lesions had subsided | 1800 μm | does not result in systemic uptake | does not affect normal dermal epithelium | less cardiotoxic and haematologically toxic | mild to no irritation | – |
| COc1cccc2c1C(=O)c1c(O)c3c(c(O)c1C2=O)C[C@@](O)(C(=O)CO)C[C@@H]3O[C@H]1C[C@H](N)[C@@H](O)[C@H](C)O1 [epirubicin] | – | – | – | – | – | – | – | – | – | – | – | – | – | – | – | – | severe necrosis |
